Measured values from a melting point compilation (Tetko et al.; mined from patent text by program, amines drawn as free bases though some values may be those of a salt).

Compound	melting point [°C]
CN(C(=O)OC(C)(C)C)C1CCN(c2nc(N3CCOCC3)nc(-n3c(C(F)F)nc4c(O)cccc43)n2)CC1	220 to 222
O=[N+]([O-])c1ccc(C=Cc2ccc(N(CCCCCCO)CCCCCCO)cc2)cc1	126 to 128
O=C1Nc2c(Br)cncc2C1(Br)Br	250
NS(=O)(=O)c1cccc(C(O)C(F)(F)F)c1 (stereo unspecified)	130 to 132
Cc1c(OCC(F)(F)F)ccnc1CS(=O)c1nc2cc(N3CCN(C)CC3)c(F)cc2[nH]1 (stereo unspecified)	73 to 74
CC(=O)Oc1c(C)c(C)c2c(c1C)CCC(C)(C=O)O2 (stereo unspecified)	88 to 90
CC1CN(Cc2ccccc2)C(=O)C(=C2SC=CS2)C1=O (stereo unspecified)	168 to 170
CC(=O)n1nc(C(=O)NC2CN(C)CCN(Cc3ccccc3)C2)c2ccccc21 (stereo unspecified)	166 to 168
CNC(=O)C1CCC(c2csc(NC(=N)N)n2)C1 (stereo unspecified)	216 to 218
CCn1ncc2c(ON=C(C)C)c(C(=O)c3ccccc3)cnc21	115 to 116
O=C(NC1=NN(c2ccc(C(=O)C(F)(F)F)cc2)C(c2ccccc2)C1)C(F)(F)F (stereo unspecified)	197 to 198
CN1C(=O)SC(=Cc2ccc([N+](=O)[O-])cc2)C1=O	233 to 234
COc1cc(Nc2c(C#N)cnc3cc(-c4ccc(CN5CCN(CCO)CC5)cc4)sc23)c(Cl)cc1Cl	189 to 190
COc1ccc(C(=O)c2cccc(NC(=O)c3ccn4c3CSC4c3cccnc3)c2)cc1 (stereo unspecified)	140
COC(=O)C(C)(C)CC(=O)CCc1ccc(Cl)cc1	52 to 54
N#Cc1nc(-c2cnn(-c3c(Cl)cc(C(F)(F)F)cc3Cl)n2)[nH]c1C#N	192 to 194
CCOC(=O)Cc1cnc(NC(C)C)nc1Cl	67 to 71
Cc1cccc(-c2nc3c(C)cccn3c2-c2ccnc(-c3ccc(CN4CCOCC4)cc3)c2)n1	122
COc1cc(C)cc2c1C(C)(C)CCC2(C)C	49 to 50
CS(=O)(=O)NCC(=O)N[C@@H]1CN2C(=O)N(c3cc(Cl)nc(Cl)c3)C(=O)[C@@]2(Cc2ccc(OC(F)(F)F)cc2)C1	105
O=C1CCCN1C(=O)Oc1cccc([N+](=O)[O-])c1	130 to 131
COc1ccc2c(c1)cc(Cc1cc3cccc(OC)c3n1S(=O)(=O)c1ccccc1)n2S(=O)(=O)c1ccccc1	168 to 170
CC(=O)OCC1OC(F)C(OC(C)=O)C(OC(C)=O)C1OC(C)=O (stereo unspecified)	68 to 69
CCCCn1c(CC)ccc1C(=O)c1cccc(N)c1	71 to 77
COc1ccc(NC(=O)Nc2ccc(C(=O)O)cc2)cc1C12CC3CC(CC(C3)C1)C2	140 to 141
COC(=O)c1cccc(OCc2nc(-c3ccccc3)oc2C)n1	97 to 98

Compound	melting point [°C]
CC1=C(C(=O)OC(C)C)C(c2cccc([N+](=O)[O-])c2)N(C(=O)N(C)C)C(N)=N1 (stereo unspecified)	202 to 203
Oc1ncnc2c(-c3ccc(Br)cc3)cnn12	> 300
Fc1ccc([C@@H]2Cc3cnc(Nc4ccc(CCN5CCCCC5)cc4)nc3-c3ccccc32)cc1	185 to 188
CC(C)(C)c1cc(CO)c(O)c(CO)c1	68 to 73
C=CC(=O)c1cnc(N2CCC[C@H]2CO)nc1NCc1ccc(OC)c(Cl)c1	113 to 115
CN1CCC(Oc2cc3ccccc3cc2C(N)=O)C1 (stereo unspecified)	128 to 130
O=Cc1ccc2c(c1)Sc1ccccc1C=C2	114 to 116
Cc1ccnc(-c2cccnc2)c1OC1SCC(O)C(O)C1O (stereo unspecified)	98
NC(=O)c1cccc(C(=O)Nc2ccc(-n3nc(C(F)(F)F)cc3C(F)(F)F)cc2)c1	244 to 245
CCC(C#N)=C1CCN(c2ccc(N3C[C@H](CNC(=O)CBr)OC3=O)cc2F)CC1	200 to 203
CC(C)Cc1ccc(CCCCc2cc3c(s2)NC(=S)CN=C3c2ccccc2Cl)cc1	133 to 135
C=CCN(CC=C)Cc1nc(-c2ncn3c2[C@@H]2CCN2C(=O)c2c(Cl)cccc2-3)no1	165 to 170
Cc1ccc(S(=O)(=O)c2ccc(O)cc2)c(Br)n1	99 to 102
Cc1cccc(-c2nccc(NN)n2)c1	102 to 103
O=C(NC1(C2CC2)CC1)c1c(NC(=O)c2cc(C(F)(F)F)nn2-c2ncccc2Cl)c(Br)cc2cn[nH]c12	212 to 214
O=C1CC[C@H]2CC3(C=C[C@@H]2C1)OCCO3 (relative stereo)	58 to 59
NCCCCn1cnc(-c2ccccc2)c1	130 to 132
CCCc1nc2c(N)nc3cc(OCc4ccc(F)cc4)ccc3c2s1	189 to 192
COc1ccc(Cl)cc1N1C(=O)CN(C)C1=S	245 to 247
CCOC(=O)c1cccc2[nH]c3c(C)ccc(C)c3c12	149
CCOC(=O)c1ccc2snnc2c1	74.5 to 77
Cc1noc(C(C)c2ccc(-c3ccccc3)c(F)c2)n1 (stereo unspecified)	55 to 56
COc1cccc(OC)c1C=CC(=O)C=Cc1c(OC)cccc1OC	152 to 154
Cn1c(=O)oc2c(O)cccc21	209 to 211
CCOc1ccc(N(c2ccccc2)C2(c3ccc(N(CC)Cc4ccccc4)cc3)OC(=O)c3ccccc32)cc1 (stereo unspecified)	163 to 173
Cc1cc(OCCNC(=O)C2Cc3ccccc3N2S(=O)(=O)c2ccc(-c3cccc(C(F)(F)F)c3)cc2)ccc1CC(=O)O (stereo unspecified)	87 to 90

Compound	melting point [°C]
COC(=O)Oc1cc(NC(=O)OCc2ccccc2)c(F)cc1Cl	70 to 72
COc1ccc(OCc2ccccc2)c2c1CN(Nc1ccncc1)CC2	151 to 152
CC(C)(NC(=O)CCS)C(=O)O	169 to 170
CCCC(=O)Nc1c(C)c2c(c(C(C)c3ccc(C(C)C)cc3)c1C)OCC2 (stereo unspecified)	152 to 153
Nc1ccc([N+](=O)[O-])cc1OCCc1cccc2ccccc12	151 to 153
Fc1ccc2[nH]c3c(c2c1)CN(CCc1ccccn1)CC3	199 to 201
CCn1cc(C=CC(=O)NC2CCNC(=O)C2)nc1-c1ccccc1 (stereo unspecified)	270 to 272
NC(=O)O[C@@](c1cc(F)cc(Cl)c1)(c1cc2cn[nH]c2cc1F)[C@@H]1CCCCN1	220
CCC(=O)NCCc1c[nH]c2cc(Cl)c(OC)cc12	100 to 101
COc1cc(Nc2nccc(NC(=O)OC(C)(C)C)n2)cc(OC)c1OC	124
CCC(C)(C)OOC(C)(CCC(=O)NNC(=O)C(C#N)=C(c1ccccc1)c1ccccc1)OOC(C)(C)CC	145 to 148
CN(O)C(=O)NCCc1ccc2c(c1)OCCO2	94 to 95
CCOC(=O)c1cccc2c1Nc1ccc(C(=O)c3ccccc3)cc1N2C(=O)OC	112 to 115
CN1CC2=C(n3cnc(I)c3C1)S(=O)C=C2 (stereo unspecified)	175 to 177
CONC(=O)c1ccc(CC(C)(C)C=O)cc1	126 to 128
Cc1ccc(OCC(O)CNC(C)(C)C)c(C2=NNC(=O)CC2)c1 (stereo unspecified)	126 to 128
O=C(Nc1ccc2c(c1)CCC2)c1ccccc1Cl	144 to 145
Cc1ccc(C(=O)Nc2c(NC(=O)CCl)ccc3c2C(=O)c2ccccc2C3=O)cc1	198 to 199
Oc1ccc(OCc2ccccc2)cc1OCc1ccccc1	82 to 83
COc1ccc2c(c1)OC[C@@H]1CCCN1C2=O	104 to 106
Cn1nc(-c2cc(F)c([N+](=O)[O-])cc2F)c(Br)c1C(F)(F)F	45.5
CC(C#N)(CCC(=O)O)SC(=S)c1ccccc1 (stereo unspecified)	97 to 99
O=C(NC1CCN(CCCC2=CCc3ccccc32)CC1)c1ccccc1	157 to 159
CCCCCOc1ccc(CCOc2ccc(/C=C(\OCC)C(=O)O)cc2OC)cc1	135
CC(=O)Nc1cc2c(cc1C#N)C=CC(C)(C)O2	136 to 137
CCCCCCCCSC(=O)n1cc2cc(C)c(NC(=O)c3cc(OC)nn3-c3ncccc3Cl)c(C(=O)NC(C)C)c2n1	98 to 102

Compound	melting point [°C]
CCNC(=O)Nc1ccccc1	99 to 100
CNC(=O)c1cc2c(nc(C)n2C)c(O)c1CCC(=O)c1ccccc1	284 to 285
Cc1nc2c(OCc3ccccc3)nccc2n1C	115 to 116
C=C(Cc1ccccc1)C(O)C(NC=O)C(=O)OCC (stereo unspecified)	87 to 89
O=C1NC(C(Cl)(Cl)Cl)Nc2ccc(I)cc21 (stereo unspecified)	224 to 225
O=C1CC[C@@H](c2ccccc2)[C@H](c2ccccc2)N1 (relative stereo)	160 to 164
CCOC(=O)Cn1cc(I)c(NC(=O)c2ccccc2)nc1=O	154 to 155
O=C(Nc1ccc(C(=O)N2Cc3ccccc3Cc3ccccc32)cc1)c1sc2ccccc2c1Cl	252 to 254
CCc1c(C)[nH]c2cc(OCOC)c(Cl)cc2c1=O	217 to 219
O=C(O)CN1C(=O)C(=Cc2csc(Nc3ccccc3)n2)SC1=S	242 to 246
CC[C@H]1C(=O)C[C@@H]2C[C@H]1OO[C@@]2(/C=C/C(=O)c1ccc(Cl)cc1)CC	127
C=CCONC(=O)c1nc(Cl)cc(N)c1Cl	161 to 163
CNC(=O)c1ncn(-c2cc3c(=O)n(NS(C)(=O)=O)c(=O)[nH]c3cc2C(F)(F)F)n1	257 to 260
Cc1cc(C)n(-c2nc(Nc3ccccc3C)c3ccccc3n2)n1	240 to 244
OCc1csc(CN2CCCC2)c1	111 to 112
Cc1oc(-c2ccccc2)nc1COc1ccc(Cc2nc(CCC(=O)O)c(-c3ccccc3)o2)cc1	136 to 137
OC1CCCN(CC(O)COc2ccc(-c3ccc(Cl)cc3)cc2)C1 (stereo unspecified)	95 to 97
CCOc1cc(-c2ccc(S(C)(=O)=O)cc2)c(-c2ccc(F)cc2)c(C(F)(F)F)n1	168 to 170
COc1cccc(CN[C@H](C)c2ccc([N+](=O)[O-])cc2)c1O	112 to 114
CC1(C)OC(=O)C(c2cccc3nnsc23)C(=O)O1	170 to 172
O=c1c2cnccc2[nH]c2ccnn12	> 300
N#Cc1cc(-c2cc(C(F)F)c3c(-c4cccnc4)n[nH]c3n2)ccc1N	296
CCC(=O)Nc1cccc(C)c1C(=O)O	152
